These results are taken from US20220267801A1, “ELIMINATION OF PROLIFERATING CELLS FROM STEM CELL-DERIVED GRAFTS” (Research Development Foundation, priority 2016, published 2022).

Assay [1] concerns TK-PSC (HS415 pluripotent stem cells expressing HSV-TK under Ki67 promoter). The experiment in a line: Calcein cell viability assay, ganciclovir on TK-PSC. It counts as cell-based, human. Here is the method:
(§1) The impact of ganciclovir on TK cells was determined in vitro (FIG. 2B, 2C, 2D). TK PSCs were highly sensitive to ganciclovir exposure (96 h) and even at ganciclovir concentrations of 2.5 μM loss of cells was observed, which was almost complete at 10 μM (FIG. 2B, 2C). In contrast, regular PSCs (i.e., not transduced with the TK construct) were resistant to ganciclovir even at concentrations of 40 μM (FIG. 2B, 2F). As expected from the lack of TK expression in TK neurons, TK neurons were not affected by ganciclovir concentrations up to 40 μM, similar to the control neurons.
(§2) The time course of the ganciclovir effect was also investigated (FIG. 2D). TK PSCs were killed by Ganciclovir (40 μM) within 4 days. TK-NPCs after 1 week of neurosphere differentiation were still sensitive to Ganciclovir (40 μM), however the time course of killing was markedly slowed down and complete killing was observed only after 8 days.
(§3) Cell proliferation measurement by calcein assay: Cells were plated onto a 96 wells pre-coated with polyornothine+ECM (1/50). Respectively 1000 cells for pluripotent stem cells, 5000 cells for early NPC and 30000 cells for late NPC. Ganciclovir (Cemevene diluted in PBS, Roche) treatment was added the day after cell plating for PSC, 3 days later for early NPC and one week later for late NPC. Calcein (2 μM) was added for different time course of ganciclovir treatment (24 H to 96 H). Cell survival was measured by calcein integration after 24 h of incubation in a 37° C. incubator.

The subject of assay [2] is regular PSCs (not transduced with the TK construct). The experiment in a line: Calcein cell viability assay, ganciclovir on control PSC. It counts as cell-based, human. The note with it: concentrations up to 40 μM. As for the experimental part: as §1, §3
The test system of assay [3] is TK neurons. The experiment in a line: Calcein cell viability assay, ganciclovir on TK-neurons. The class given is cell-based, human. The note with it: concentrations up to 40 μM. Here is the method:
as §1
(§4) Generation of NPC in two dimensional culture (2D): For differentiation in 2D, 3-week old neurospheres were dissociated with ACCUMAX® (Millipore) and replated on polyornithine- (15 μg/mL; Sigma) and laminin- (2 μg/cm^2; R&D System) coated cover slips (diameter=0.8cm) in 24-well plates at 200,000 cells/cm^2 in maturation medium for 1 week before analysis by immunofluorescence staining (FIG. 1B).
(§5) Cell proliferation measurement by calcein assay: Cells were plated onto a 96 wells pre-coated with polyornothine+ECM (1/50). Respectively 1000 cells for pluripotent stem cells, 5000 cells for early NPC and 30000 cells for late NPC. […] Cell survival was measured by calcein integration after 24 h of incubation in a 37° C. incubator.

Assay [4] relates to control neurons. The experiment in a line: Calcein cell viability assay, ganciclovir on control neurons. The class given is cell-based, human. The note with it: concentrations up to 40 μM. Here is the method:
as §1, §4, §5

In assay [5] the test system is TK-NPCs (neurosphere-derived neural precursor cells). The experiment in a line: Calcein cell viability assay, ganciclovir time course on TK-NPC. The class given is cell-based, human. The note with it: 40 μM ganciclovir. Here is the method:
as §2
Generation of neurospheres containing DA neuropecursors: NPC were generated as neurospheres to contain DA progenitors as described previously (Tieng et al., 2014). Briefly, neural midbrain orientation is performed during the first week followed by 2 additional weeks of maturation to obtain 1 week or 2 or 3 week-old NPC (FIGS. 1B, 3A).
as §3

Assay [6] has as its system teratoma from transplanted TK-PSC. The experiment in a line: TK-PSC transplantation into striatum of NOD/SCID mice, ganciclovir treatment, teratoma formation. It counts as in vivo. As for the experimental part:
(§6) FIGS. 3A-3C: Schedule of cell transplantation and ganciclovir treatment. Different transplantation and ganciclovir treatment protocols were used. (A) Schematic representation of the differentiation protocol towards DA neurons. Pluripotent stem cells were cultured as neurospheres for 1 week for midbrain orientation phase, followed by a 2 or 3 week-maturation phase. (B) Transplantation of undifferentiated pluripotent stem cells with early or late ganciclovir treatment. Early treatment: undifferentiated pluripotent stem cells were transplanted and ganciclovir (or PBS control) was applied by daily intra-peritoneal injection from day 4 to day 19 post-transplantation. Late treatment: undifferentiated pluripotent stem cells were transplanted and ganciclovir (or PBS control) was applied by daily intra-peritoneal injection from day 30 to day 45 post-transplantation. (C) Transplantation of 2 or 3 week NPC: NPC containing- neurospheres were dissociated and transplanted into mice striatum. Ganciclovir (or PBS control) treatment was given from day 4 to day 19 post-transplantation. For all protocols, animals were sacrificed 1 month after termination of ganciclovir treatment.
Early, but not late ganciclovir treatment prevents tumor formation upon transplantation of highly proliferative pluripotent stem cells: Given the encouraging results in vitro, it was investigated whether ganciclovir could prevent tumor formation in vivo. For this purpose TK-PSC were transplanted into the striatum of NOD/SCID mice. […] There was a moderate amount of mouse microglia invasion.
It was next investigated whether ganciclovir could also be used to treat already established teratomas. […] Mice were sacrificed 30 days after the end of the ganciclovir treatment.
Stereotaxic engraftment and ganciclovir treatment: Undifferentiated pluripotent stem cells (20000 cells/ μL) and dissociated neurospheres (100.000 cells/μL) were injected in the striatum of anesthetized mice using a 27-G Hamilton syringe. Injection coordinates for lateral striatum were: bregma=0.74 mm, mediolateral=2.25 mm, dorsoventral=3.5 mm; for medial striatum: bregma=0.74 mm, mediolateral=1.4 mm, dorsoventral=2.8 mm. Mice were euthanized one month later after ganciclovir termination.
Morphological and Phenotypic Analysis of Injected Surviving Cells: Anesthetized mice were fixed by intracardiac perfusion of 4% paraformaldehyde in phosphate-buffered saline. Immunohistochemical detection was performed on 10-μm thick free-floating cryostat sections using Alexa 488®-, or 555-labeled secondary antibodies or the biotin—avidin—peroxidase complex method (Vector). The following primary antibodies were used: Nestin (rabbit polyclonal anti-human, from Chemicon, 1/400), β3-tubulin (mouse monoclonal from Sigma or rabbit polyclonal from Covance, 1/2000), Neuronal Nuclei-specific protein (NeuN, mouse monoclonal from Chemicon, 1/1000), Glial Fibrillary Acidic Protein (GFAP, rabbit polyclonal from Dako, 1/2000), Proliferating Cell Nuclear Antigen (PCNA, mouse monoclonal from Dako, 1/100), Tyrosin Hydroxylase (TH, rabbit polyclonal from millipore, 1/500), iba 1 (polyclonal rabbit from Wako, 1/500), HSV-TK (mouse monoclonal, Gentaur, 1/100), ki67 (monoclonal rabbit, Abcam, 1/100 or mouse, Chemicon, 1/100).

In assay [7] the test system is transplanted TK-NPC graft. The experiment in a line: Transplantation of 2-3 week NPC neurospheres into mouse striatum, ganciclovir treatment. It counts as in vivo, mice. Here is the method:
as §6
Transplantation of TK-NPCs produced mature neurons which were not sensitive to ganciclovir treatment: The in vivo results, shown so far, were obtained with transplantation of undifferentiated pluripotent stem cells. However, the final goal of neuronal cell therapy is the transplantation of neural precursor cells, which should differentiate into mature neurons and be resistant to ganciclovir treatment. Therefore, 2-3 weeks-NPC containing neurospheres were transplanted (FIGS. 3C, 8). Under these conditions, no tumor formation was observed, even in the absence of ganciclovir treatment (FIG. 8A). In line with these observations, the transplanted cells (assessed by immunofluorescence 7 weeks after transplantation) were abundantly positive for beta 3 tubulin (FIG. 8B, upper panel), while a smaller fraction of cells was TH-positive (FIG. 8B, lower panel). Occasionally nestin-positive cells were observed.
Markers of cellular proliferation were analyzed by staining of the transplants with antibodies against PCNA and Ki67 (FIG. 8C). […] To verify whether the PCNA-positive, Ki67-negative cells were proliferating cells, BrdU experiments were performed.
Stereotaxic engraftment and ganciclovir treatment: Undifferentiated pluripotent stem cells (20000 cells/ μL) and dissociated neurospheres (100.000 cells/μL) were injected in the striatum of anesthetized mice using a 27-G Hamilton syringe. Injection coordinates for lateral striatum were: bregma=0.74 mm, mediolateral=2.25 mm, dorsoventral=3.5 mm; for medial striatum: bregma=0.74 mm, mediolateral=1.4 mm, dorsoventral=2.8 mm. […]

[8] abbreviates: early treatment, one month after termination of treatment.

Entries after “also recorded” stand apart in the source; their conditions may differ.

For `Nc1nc(O)c2ncn(COC(CO)CO)c2n1` [ganciclovir], the “time to killing of TK PSCs” value in assay [1] (40 μM ganciclovir) was no more than 4 days. In addition, in assay [1] (TK PSCs, 96 h exposure), the “ganciclovir concentration at which loss of cells was almost complete” value was 10 µM and the “ganciclovir concentration at which loss of cells was observed” value was 2.5 µM. Besides, the “sensitivity of regular (control) PSCs to ganciclovir” value in assay [2] is “resistant; also recorded: no ganciclovir toxicity is observed”. Also, the “effect of ganciclovir on TK neurons” value in assay [3] is reported as “not affected; also recorded: lose their sensitivity”. Moreover, the “effect of ganciclovir on control neurons” value in assay [4] was “not affected”. In addition, the “time to complete killing of TK-NPCs” value in assay [5] (TK-NPCs after 1 week of neurosphere differentiation) is 8 days. For the same compound, the “killing of TK-NPCs” value in assay [5] (TK-NPCs after 2 weeks of neurosphere differentiation) is on record as “not killed”. For the same compound, in assay [6] (early ganciclovir treatment), the “tumor development (graft surface)” value is “completely prevented”. In addition, in assay [6] (setting [8]), the “Ki67 and TK expression in the graft region” value is “virtually no Ki67 and TK expression”; the “human cells (HCM) remaining in the graft” value is given as “hardly any human cells left; also recorded: barely detectable”. Also, the teratoma formation entry in assay [6] (early treatment: 15 days, starting 4 days post-transplantation, daily i.p.) is “no observed teratomas; also recorded: absence of teratoma formation”. For the same compound, the “tumor size (graft surface)” value in assay [6] (late ganciclovir treatment) is given as “did not have any effect”. Moreover, the teratoma formation entry in assay [6] (late treatment: days 30-45 post-transplantation, sacrifice 30 days after end of treatment) is on record as “teratoma formation; also recorded: no difference”. For the same compound, the “size of transplants (graft surface)” value in assay [7] (NPC from 2-3 weeks old neurospheres, early ganciclovir treatment) is recorded as “not affected”. Besides, the “proliferation marker pattern of transplants (PCNA positive, Ki67 low to absent)” value in assay [7] (ganciclovir vs control) is listed as “did not alter this pattern”. The “neural markers of transplanted cells (beta 3 tubulin, TH, nestin)” value in assay [7] (immunofluorescence 7 weeks after transplantation) is “None of these markers were affected”. Moreover, in assay [7] (sacrifice 4 weeks after termination of treatment), the “graft development, ganciclovir vs PBS” value is given as “No difference”.
